Data published in US10144715B2, “Piperazine derivatives as liver X receptor modulators” (priority 2014, dated 2018).
Like-named read-outs stand apart in the source and are kept apart here.

Legend:
LXR β LBD protein = LXR β LBD protein (Homo sapiens (Human), UniProt P55055); assay: biochemical; type: binding
[1] = target: Gal4 DNA binding domain fused to the LBD of LXRα in HEK293 cells (Homo sapiens (Human), UniProt Q13133); assay: LXR luciferase transcriptional reporter gene assay, agonist mode, LXRα; type: cell-based
Gal4 DNA binding domain fused to the LBD of LXRα in HEK293 cells, sequence (Q13133 209-447): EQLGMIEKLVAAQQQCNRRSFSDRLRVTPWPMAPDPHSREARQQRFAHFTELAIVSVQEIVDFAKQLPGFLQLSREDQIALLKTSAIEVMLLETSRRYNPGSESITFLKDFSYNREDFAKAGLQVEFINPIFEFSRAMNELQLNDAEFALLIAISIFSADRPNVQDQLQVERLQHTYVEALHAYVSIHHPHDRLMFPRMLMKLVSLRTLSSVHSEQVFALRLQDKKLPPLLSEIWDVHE

[2] = target: Gal4 DNA binding domain fused to the LBD of LXRβ in HEK293 cells (Homo sapiens (Human), UniProt P55055); assay: cell-based
Gal4 DNA binding domain fused to the LBD of LXRβ in HEK293 cells, sequence (P55055 222-460 limits assumed): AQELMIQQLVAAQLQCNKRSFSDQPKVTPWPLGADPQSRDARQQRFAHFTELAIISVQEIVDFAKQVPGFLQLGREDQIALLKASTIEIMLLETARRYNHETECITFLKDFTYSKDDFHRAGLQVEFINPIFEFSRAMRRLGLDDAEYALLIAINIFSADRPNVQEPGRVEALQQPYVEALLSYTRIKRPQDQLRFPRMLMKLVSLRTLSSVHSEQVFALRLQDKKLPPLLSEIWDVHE

LXR α LBD protein = LXR α LBD protein (Homo sapiens (Human), UniProt Q13133); assay: LXR α radioligand binding assay (SPA, competition with [3H]TO901317); conditions: read-out: LXRα Binding Ki
LXR α LBD protein, sequence (Q13133 209-447): as the sequence (Q13133 209-447) above

[3] = Biological Test Example 1, read-out: LXRβ Binding Ki
[4] = Biological Test Example 2, agonist mode
[5] = agonist mode, read-out: Cell LXRα EC50
[6] = Biological Test Example 2, agonist mode, read-out: Cell LXRα EC50

LXR β LBD protein, sequence (P55055 222-460 limits assumed): as the sequence (P55055 222-460 limits assumed) above

Row | EC50 [2] [µM] | Cell LXRβ efficacy ([2]; agonist mode) | Ki (LXR β LBD protein; read-out: LXRβ Binding Ki) [µM] | SMILES | Cell LXRα efficacy [1] | EC50 ([1]; read-out: Cell LXRα EC50) [µM] | Ki (LXR α LBD protein) [µM] | further results
1 | 0.033 | 33 (58) % |  | CNS(=O)(=O)c1cc(N2CCN(c3ncc(C(C)=O)c(C(F)(F)F)n3)[C@H](C(C)C)C2)ccc1F [13-2, (R)-5-(4-(5-acetyl-4-(trifluoromethyl)pyrimidin-2-yl)-3-isopropylpiperazin-1-yl)-2-fluoro-N-methylbenzenesulfonamide] | 290 (73) % | 0.29 |  | Ki (LXR β LBD protein): 0.003 µM
2 | 2.08 |  |  | CC1(C)CCC(O)(CN2CCN(c3cccc(S(C)(=O)=O)c3)C[C@H]2c2ccccc2)CC1 [53-2, (R)-4,4-dimethyl-1-((4-(3-(methylsulfonyl)phenyl)-2-phenylpiperazin-1-yl)methyl)cyclohexan-1-ol] |  |  |  | Ki (LXR β LBD protein; [3]): 0.609 µM; Cell LXRβ efficacy [2, 4]: 2082 (56) %
3 |  |  |  | CS(=O)(=O)c1cccc(N2CCN(C[C@H]3CC[C@H](C(F)(F)F)CC3)[C@@H](c3ccccc3Cl)C2)c1 (single isomer, unassigned) [48-46] | 1908 (35) % | 1.91 |  | Ki (LXR β LBD protein; [3]): 0.027 µM; Cell LXRβ efficacy [2, 4]: 35%; EC50 ([2]; Biological Test Example 2, agonist mode, read-out: Cell LXRβ EC50): 0.91 µM
4 | 0.041 |  | 0.003 | Cc1nc(N2CCN(c3ccc(F)c(S(C)(=O)=O)c3)C[C@H]2C(C)C)ncc1C(F)(F)F [Cpd No 37-1, (R)-2-(4-(4-fluoro-3-(methylsulfonyl)phenyl)-2-isopropylpiperazin-1-yl)-4-methyl-5-(trifluoromethyl)pyrimidine] | 262 (91) % | 0.262 |  | Cell LXRβ efficacy [2]: 41 (81) %
5 | 2.48 | 2479 (33) % |  | CC(C)[C@@H]1CN(c2ccc(F)c(S(C)(=O)=O)c2)CCN1c1nccc(CO)n1 [11-15, (R)-(2-(4-(4-fluoro-3-(methylsulfonyl)phenyl)-2-isopropylpiperazin-1-yl)pyrimidin-4-yl)methanol] |  |  |  | Ki (LXR β LBD protein): 0.93 µM
6 |  |  |  | CC(C)C1CN(c2ccc(C#N)c(S(C)(=O)=O)c2)CCN1CC1CCC(C(F)(F)F)CC1 [50-2, 4-((S)-3-isopropyl-4-(((1r,4S)-4-(trifluoromethyl)cyclohexyl)methyl)piperazin-1-yl)-2-(methylsulfonyl)benzonitrile] | 721 (72) % | 0.721 | 0.358 | Cell LXRβ efficacy [2, 4]: 542 (85) %
7 |  |  |  | CC(C)[C@H]1CN(c2ccc(C#N)c(S(C)(=O)=O)c2)CCN1C[C@H]1CC[C@@H](C(F)(F)F)CC1 [Cpd No 50-1, 4-((S)-3-isopropyl-4-(((1s,4R)-4-(trifluoromethyl)cyclohexyl)methyl)piperazin-1-yl)-2-(methylsulfonyl)benzonitrile] | 181 (100) % | 0.181 | 0.107 | Cell LXRβ efficacy [2, 4]: 88%
8 | 0.049 |  | 0.002 | Cc1nc(N2CCN(c3cccc(S(C)(=O)=O)c3)C[C@H]2C(C)C)ccc1C(F)(F)F [Cpd No 37-2, (R)-2-isopropyl-1-(6-methyl-5-(trifluoromethyl)pyridin-2-yl)-4-(3-(methylsulfonyl)phenyl)piperazine] |  |  |  | Cell LXRβ efficacy [2]: 49 (98) %
9 | 0.028 | 28 (105) % | 0.02 | CC(C)[C@@H]1CN(c2ccc(CO)c(S(C)(=O)=O)c2)CCN1c1ccc(C(F)(F)F)nc1 [Cpd No 20-4, (R)-(4-(3-isopropyl-4-(6-(trifluoromethyl)pyridin-3-yl)piperazin-1-yl)-2-(methylsulfonyl)phenyl)methanol] |  |  |  | 
10 | 0.467 | 467 (76) % | 0.095 | CC(C)[C@@H]1CN(c2ccc(CO)c(S(C)(=O)=O)c2)CCN1c1nc(C(F)(F)F)c(CO)o1 [11-16, (R)-(2-(4-(4-(hydroxymethyl)-3-(methylsulfonyl)phenyl)-2-isopropylpiperazin-1-yl)-4-(trifluoromethyl)oxazol-5-yl)methanol] |  |  |  | 
11 | 0.292 | 292 (89) % | 0.053 | CC(C)[C@@H]1CN(c2ccc(CO)c(S(C)(=O)=O)c2)CCN1c1nc(C(F)(F)F)c(CO)s1 [11-17, (R)-(2-(4-(4-(hydroxymethyl)-3-(methylsulfonyl)phenyl)-2-isopropylpiperazin-1-yl)-4-(trifluoromethyl)thiazol-5-yl)methanol] |  |  |  | 
12 |  |  |  | CS(=O)(=O)c1cccc(N2CCN(c3nccc(C(F)(F)F)n3)[C@H](C(F)(F)F)C2)c1 [7-28, (S)-2-(4-(3-(methylsulfonyl)phenyl)-2-(trifluoromethyl)piperazin-1-yl)-4-(trifluoromethyl)pyrimidine] | 2235 (40) % | 2.24 | 0.422 | 
13 |  |  |  | CC(=O)NCc1ccc(N2CCN(c3nccc(C(F)(F)F)n3)[C@H](C(C)C)C2)cc1S(C)(=O)=O [Cpd No 54-1, (R)-N-(4-(3-isopropyl-4-(4-(trifluoromethyl)pyrimidin-2-yl)piperazin-1-yl)-2-(methylsulfonyl)benzyl)acetamide] |  |  |  | Ki (LXR α LBD protein; Biological Test Example 1): 0.716 µM; Cell LXRα efficacy [1, 4]: 72%; EC50 [1, 6]: 2.2 µM
14 |  |  |  | CC(C)[C@@H]1CN(c2ccc(F)c(S(C)(=O)=O)c2)CCN1c1ncc(C(F)(F)F)c(C#N)n1 [Cpd No 43-1, (R)-2-(4-(4-fluoro-3-(methylsulfonyl)phenyl)-2-isopropylpiperazin-1-yl)-5-(trifluoromethyl)pyrimidine-4-carbonitrile] | 136 (101) % | 0.136 | 0.026 | 
15 |  |  |  | COC(=O)c1ccc(N2CCN(c3ccc(F)c(S(C)(=O)=O)c3)C[C@H]2C(C)C)nc1C(F)(F)F [7-43, methyl (R)-6-(4-(4-fluoro-3-(methylsulfonyl)phenyl)-2-isopropylpiperazin-1-yl)-2-(trifluoromethyl)nicotinate] | 649 (77) % |  | 0.13 | EC50 [1, 5]: 0.649 µM
16 | 1.03 |  |  | CC1(C)CCC(O)(CN2CCN(c3cccc(S(C)(=O)=O)c3)C[C@@H]2c2ccccc2)CC1 [Cpd No 53-1, (S)-4,4-dimethyl-1-((4-(3-(methylsulfonyl)phenyl)-2-phenylpiperazin-1-yl)methyl)cyclohexan-1-ol] |  |  |  | Ki (LXR β LBD protein; [3]): 0.121 µM; Cell LXRβ efficacy [2, 4]: 1030 (53) %
17 | 0.443 | 443 (48) % | 0.052 | CC(C)[C@@H]1CN(c2ccc(F)c(S(C)(=O)=O)c2)CCN1c1ccc(C(C)(O)C(F)(F)F)cn1 (stereo partly drawn) [20-3, 1,1,1-trifluoro-2-(6-((R)-4-(4-fluoro-3-(methylsulfonyl)phenyl)-2-isopropylpiperazin-1-yl)pyridin-3-yl)propan-2-ol] |  |  |  | 
18 | 0.044 |  | 0.012 | CC(C)[C@@H]1CN(c2ccc(F)c(S(C)(=O)=O)c2)CCN1c1nc2cccnc2s1 [Cpd No 7-57, (R)-2-(4-(4-fluoro-3-(methylsulfonyl)phenyl)-2-isopropylpiperazin-1-yl)thiazolo[5,4-b]pyridine] |  |  |  | Cell LXRβ efficacy [2]: 44 (90) %
19 |  |  |  | CC(C)[C@H]1CN(c2cccc(S(C)(=O)=O)c2)CCN1CC1CCC(C)(C)CC1 [48-2, (S)-1-((4,4-dimethylcyclohexyl)methyl)-2-isopropyl-4-(3-(methylsulfonyl)phenyl)piperazine] | 175 (81) % | 0.175 | 0.081 | 
20 | 0.706 | 706 (43) % | 0.073 | CC(C)[C@@H]1CN(c2cccc(S(C)(=O)=O)c2)CCN1c1ccc(C(C)(F)F)cn1 [20-2, (R)-1-(5-(1,1-difluoroethyl)pyridin-2-yl)-2-isopropyl-4-(3-(methylsulfonyl)phenyl)piperazine] |  |  |  | 
21 |  |  |  | CC(C)[C@H]1CN(c2ccc(CO)c(S(C)(=O)=O)c2)CCN1C[C@H]1CCN(CC(F)(F)F)C1 (single isomer, unassigned) [48-58] | 3252 (56) % |  |  | Ki (LXR α LBD protein; Biological Test Example 1): > 3.33 µM; EC50 [1, 6]: 3.25 µM
22 |  |  |  | CCOC(=O)c1csc(-c2ccc(N3CCN(C(=O)OC(C)(C)C)[C@H](C(C)C)C3)cc2S(C)(=O)=O)n1 [2-4, ethyl (R)-2-(4-(4-(tert-butoxycarbonyl)-3-isopropylpiperazin-1-yl)-2-(methylsulfonyl)phenyl)thiazole-4-carboxylate] | 4227 (62) % |  | 1.07 | EC50 [1, 5]: 4.23 µM

Row | SMILES | EC50 [2] [µM] | Cell LXRβ efficacy ([2]; agonist mode) | Ki (LXR β LBD protein; read-out: LXRβ Binding Ki) [µM] | Cell LXRα efficacy [1] | EC50 ([1]; read-out: Cell LXRα EC50) [µM] | Ki (LXR α LBD protein) [µM] | further results
23 | C=C(C)c1cnc(N2CCN(c3ccc(CO)c(S(C)(=O)=O)c3)C[C@H]2C(C)C)nc1C(F)(F)F [14-2, (R)-(4-(3-isopropyl-4-(5-(prop-1-en-2-yl)-4-(trifluoromethyl)pyrimidin-2-yl)piperazin-1-yl)-2-(methylsulfonyl)phenyl)methanol] | 0.028 | 28 (42) % | 0.001 | 186 (63) % |  |  | EC50 [1, 5]: 0.186 µM
24 | CC(C)[C@@H]1CN(c2ccc(F)c(S(C)(=O)=O)c2)CCN1C(=O)OC(C)C(F)(F)F (stereo partly drawn) [5-3, 1,1,1-trifluoropropan-2-yl (2R)-4-(4-fluoro-3-(methylsulfonyl)phenyl)-2-isopropylpiperazine-1-carboxylate] | 0.198 |  |  | 1595 (86) % |  | 0.474 | EC50 [1]: 1.59 µM
25 | CC(C)[C@@H]1CN(c2ccc(F)c(S(C)(=O)=O)c2)CCN1c1ncc(C(=O)N(C)C2CN(C(=O)OC(C)(C)C)C2)c(C(F)(F)F)n1 [17-22, tert-butyl (R)-3-(2-(4-(4-fluoro-3-(methylsulfonyl)phenyl)-2-isopropylpiperazin-1-yl)-N-methyl-4-(trifluoromethyl)pyrimidine-5-carboxamido)azetidine-1-carboxylate] | > 20 |  |  |  |  | 0.67 | EC50 [1]: > 20 µM
26 | CC(C)[C@@H]1CN(c2ccc(F)c(S(C)(=O)=O)c2)CCN1C(=O)OC(C)(C)C(F)(F)F [5-2, 1,1,1-trifluoro-2-methylpropan-2-yl (R)-4-(4-fluoro-3-(methylsulfonyl)phenyl)-2-isopropylpiperazine-1-carboxylate] | 0.111 |  |  | 947 (73) % |  | 0.163 | EC50 [1]: 0.947 µM
